# Values quoted from earlier work, collected in patent US20090214643A1, “IMPROVED PHARMACOKINETIC PROFILE OF BETA-ADRENERGIC INVERSE AGONISTS FOR THE TREATMENT OF PULMONARY AIRWAY DISEASES” (priority 2005, published 2009).
# Key:
# [1] = single dose, Corgard product insert
SMILES,response of asthmatics to beta blocker administration (asthmatics; medical literature accounts),average Tmax (time to peak serum level) [1],"effect on airway function observed in asthmatics (asthmatics; literature 1962, 1964)"
CC(C)(C)NCC(O)COc1cccc2c1CC(O)C(O)C2 (stereo not drawn) [nadolol],serious pulmonary function reduction,3.5 h,
CC(C)NCC(O)c1ccc2ccccc2c1 (stereo not drawn) [pronethalol],,,reduction in airway function
